Results on 20 compounds are retold here after patent publication US10899758B2, “Inhibitors of the menin-MLL interaction” (Vitae Pharmaceuticals, LLC, priority 2016, dated 2021).

Structures are written as SMILES. Like-named read-outs stand apart in the source and are kept apart here. Bounds are passed on as bounds.

Assay [1] has as its system human acute monocytic leukemia cell line MV-4-11. Briefly: Assay 2 (Cell Proliferation Assay), ATP quantitation (CellTiter-Glo). Type of assay: cell-based. Conditions: MV-4-11 cells, read-out: Assay 2 (EC50, inhibition of cell proliferation). The protocol:
Potencies of inhibitor compounds against cell proliferation was assessed against the human acute monocytic leukemia cell line MV-4-11 (ATCC® CRL-9591™) based on ATP quantitation. MV-4-11 cells or toxicity control HL-60 cells (ATCC® CCL-240™) were incubated in 96-well tissue culture plates (1.67×10^4 cells in 200 μL culture media containing 10% FBS per well) with or without test compound for 72 h at 37° C., 5% CO2. After incubation, each well was mixed by pipetting and 95 μL from each well was transferred to a well in 96-well black OptiPlate® plates (PerkinElmer). An equal volume of CellTiter-Glo® Luminescent Cell Viability Assay reagent (Promega) was added to each well, followed by mixing for 5 min on an orbital plate shaker. Luminescence was measured on a Wallac EnVision 2104 Multilabel Reader (PerkinElmer) to quantitate ATP. Percent inhibition of cell proliferation by test compounds was calculated based on uninhibited cell growth (DMSO) versus cells treated with a potent menin inhibitor at a concentration yielding at least 100×LD50.

Assay [2] deals with T1, menin/MLL binding (biotinylated wild-type or mutated menin and MLL-AF9 fusion protein) (Homo sapiens, UniProt O00255).
T1 construct: biotinylated (1) wild-type menin or (2) mutated menin (described in Nature (2012) Vol. 482, pp. 542-548); fused on or other part: Biotin attached chemically (Sulfo-NHS-Biotin); no fused second protein is printed for menin
T1 sequence (O00255 1-459 limits assumed): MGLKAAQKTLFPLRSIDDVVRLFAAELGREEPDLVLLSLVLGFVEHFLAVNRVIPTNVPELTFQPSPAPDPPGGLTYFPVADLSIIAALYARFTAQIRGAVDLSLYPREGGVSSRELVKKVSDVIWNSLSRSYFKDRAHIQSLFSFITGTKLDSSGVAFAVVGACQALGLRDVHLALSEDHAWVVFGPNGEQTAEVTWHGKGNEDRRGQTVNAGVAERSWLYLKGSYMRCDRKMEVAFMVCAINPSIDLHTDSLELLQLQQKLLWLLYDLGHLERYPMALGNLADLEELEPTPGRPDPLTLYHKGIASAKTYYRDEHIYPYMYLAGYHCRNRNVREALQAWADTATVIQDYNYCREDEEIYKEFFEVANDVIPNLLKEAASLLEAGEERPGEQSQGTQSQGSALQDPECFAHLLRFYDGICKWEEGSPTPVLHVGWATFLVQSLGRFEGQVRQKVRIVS
The experiment in a line: Assay 1 (Binding Assay): AlphaLISA menin/MLL binding. The settings on record: 5 nM biotinylated menin, MLL-AF9-FLAG lysate. The procedure, abridged: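 Biotinylated E. coli-expressed menin (wild-type or mutant), 5 nM, incubated 30 min RT with compound and HEK293 lysate of MLL1-1,396–AF9-FLAG in pH 7.4 Tris buffer, 5% DMSO, 1 mM DTT. Anti-FLAG acceptor and streptavidin donor beads added, 60 min RT, AlphaLISA signal read. IC50 from four-parameter fit of % inhibition.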

Take `CC(C)N(C)C(=O)c1cc(F)ccc1-n1cc([C@H]2CC[C@H](N3CC[C@H](CO)C3)CC2)c2ccncc21` [Example 104, 5-fluoro-2-(3-(trans-4-((S)-3-(hydroxymethyl)pyrrolidin-1-yl)cyclohexyl)-1H-pyrrolo[2,3-c]pyridin-1-yl)-N-isopropyl-N-methylbenzamide]: the EC50 in assay [1] (Homo sapiens, MV4-11, 72 h) lay in the range of 100 to 1000 nM. The IC50 in assay [2] is under 100 nM.

As for `CCN(C(=O)c1cc(F)ccc1-n1cc(C2CCN(C[C@H]3CC[C@H](NS(C)(=O)=O)CC3)C2)c2ccncc21)C(C)C` (stereo partly drawn) [Example 125, N-ethyl-5-fluoro-N-isopropyl-2-(3-(1-((trans-4-(methylsulfonamido)cyclohexyl)methyl)pyrrolidin-3-yl)-1H-pyrrolo[2,3-c]pyridin-1-yl)benzamide], the EC50 in assay [1] (Homo sapiens, MV4-11, 72 h) was under 100 nM. In assay [2], this compound showed an IC50 of under 100 nM.

On to `CC(C)N(C)C(=O)c1cc(F)ccc1-n1cc(C2CCN(Cc3ccc(F)cc3)CC2)c2ccncc21` [Example 9, 5-fluoro-2-(3-(1-(4-fluorobenzyl)piperidin-4-yl)-1H-pyrrolo[2,3-c]pyridin-1-yl)-N-isopropyl-N-methylbenzamide], for which the EC50 in assay [1] (Homo sapiens, MV4-11, 72 h) was 100 to 1000 nM. Moreover, the IC50 in assay [2] is under 100 nM.

Consider `CNC(=O)c1cccc(CCN2CCC(c3cn(-c4ccc(F)cc4C(=O)N(C)C(C)C)c4cnccc34)CC2)c1` [Example 26, 5-fluoro-N-isopropyl-N-methyl-2-(3-(1-(3-(methylcarbamoyl)phenethyl)piperidin-4-yl)-1H-pyrrolo[2,3-c]pyridin-1-yl)benzamide], for which, in assay [1] (Homo sapiens, MV4-11, 72 h), the EC50 fell in the range of 100 to 1000 nM. This compound yielded an IC50 in assay [2] of under 100 nM.

`CC(C)N(C)C(=O)c1cc(F)ccc1-n1cc([C@H]2CC[C@H](N3CCC(F)(F)CC3)CC2)c2ccncc21` [Example 110, 2-(3-(trans-4-(4,4-difluoropiperidin-1-yl)cyclohexyl)-1H-pyrrolo[2,3-c]pyridin-1-yl)-5-fluoro-N-isopropyl-N-methylbenzamide]: the EC50 in assay [1] (Homo sapiens, MV4-11, 72 h) lay in the range of 100 to 1000 nM. In addition, in assay [2], the 50% inhibitory concentration (IC50) is under 100 nM.

`CC(C)N(C)C(=O)c1cc(F)ccc1-n1cc(C2CCN(CCC3CCN(S(C)(=O)=O)CC3)CC2)c2ccncc21` [Example 28, 5-fluoro-N-isopropyl-N-methyl-2-(3-(1-(2-(1-(methylsulfonyl)piperidin-4-yl)ethyl)piperidin-4-yl)-1H-pyrrolo[2,3-c]pyridin-1-yl)benzamide]: the EC50 in assay [1] (Homo sapiens, MV4-11, 72 h) was in the range of 100 to 1000 nM. In addition, the IC50 in assay [2] was under 100 nM.

Consider `CC(C)N(C)C(=O)c1cc(F)ccc1-n1cc(C2CCN(C[C@H]3CC[C@H](O)CC3)CC2)c2ccncc21` [Example 27, trans-(5-fluoro-2-(3-(1-((4-hydroxycyclohexyl)methyl)piperidin-4-yl)-1H-pyrrolo[2,3-c]pyridin-1-yl)-N-isopropyl-N-methylbenzamide)], for which the EC50 in assay [1] (Homo sapiens, MV4-11, 72 h) was at least 1000 nM. In assay [2], this compound showed a 50% inhibitory concentration (IC50) of under 100 nM.

With `CC(C)N(C)C(=O)c1cc(F)ccc1-n1cc(C2CCN(CCN3CCC(NS(C)(=O)=O)CC3)CC2)c2ccncc21` [Example 93, 5-fluoro-N-isopropyl-N-methyl-2-(3-(1-(2-(4-(methylsulfonamido)piperidin-1-yl)ethyl)piperidin-4-yl)-1H-pyrrolo[2,3-c]pyridin-1-yl)benzamide], in assay [1] (Homo sapiens, MV4-11, 72 h), the EC50 was 100 to 1000 nM. The same compound had an IC50 in assay [2] of under 100 nM.

For the compound `CCN(C(=O)c1cc(F)ccc1-n1cc([C@@H]2CCCN(Cc3ccc4c(c3)[nH]c(=O)n4CCO)C2)c2ccncc21)C(C)C` [Example 49A, (S)-N-ethyl-5-fluoro-2-(3-(1-((1-(2-hydroxyethyl)-2-oxo-2,3-dihydro-1H-benzo[d]imidazol-5-yl)methyl)piperidin-3-yl)-1H-pyrrolo[2,3-c]pyridin-1-yl)-N-isopropylbenzamide], the EC50 in assay [1] (Homo sapiens, MV4-11, 72 h) is under 100 nM. In assay [2], this compound had an IC50 of under 100 nM.

Regarding `CC(C)N(C)C(=O)c1cc(F)ccc1-n1cc(C2CCN(CC3CC(F)(F)C3)CC2)c2ccncc21` [Example 16, 2-(3-(1-((3,3-difluorocyclobutyl)methyl)piperidin-4-yl)-1H-pyrrolo[2,3-c]pyridin-1-l)-5-fluoro-N-isopropyl-N-methylbenzamide], the EC50 in assay [1] (Homo sapiens, MV4-11, 72 h) lay in the range of 100 to 1000 nM. Further, in assay [2], the IC50 is under 100 nM.

For `CC(C)N(C)C(=O)c1cc(F)ccc1-n1cc(C2CCC(N(C)CC3CCC(NS(C)(=O)=O)CC3)CC2)c2ccncc21` (single isomer, unassigned) [Example 128, 5-fluoro-N-isopropyl-N-methyl-2-(3-(4-(methyl((4-(methylsulfonamido)cyclohexyl)methyl)amino)cyclohexyl)-1H-pyrrolo[2,3-c]pyridin-1-yl)benzamide], the EC50 in assay [1] (Homo sapiens, MV4-11, 72 h) was under 100 nM. Also, the IC50 in assay [2] is under 100 nM.

`CC(C)N(C)C(=O)c1cc(F)ccc1-n1c(=O)n(C2CCN(CC[C@H]3CC[C@H](NS(C)(=O)=O)CC3)CC2)c2ccncc21` [Example 78, 5-fluoro-N-isopropyl-N-methyl-2-(1-(1-(2-((1r,4r)-4-(methylsulfonamido)cyclohexyl)ethyl)piperidin-4-yl)-2-oxo-1,2-dihydro-3H-imidazo[4,5-c]pyridin-3-yl)benzamide]: the EC50 in assay [1] (Homo sapiens, MV4-11, 72 h) fell in the range of 100 to 1000 nM. Also, the IC50 in assay [2] is under 100 nM.

`CC(C)N(C)C(=O)c1cc(F)ccc1-n1cc(C2CCCN(Cc3ccccc3)C2)c2ccncc21` (stereo not shown) [Example 45, 2-(3-(1-benzylpiperidin-3-yl)-1H-pyrrolo[2,3-c]pyridin-1-yl)-5-fluoro-N-isopropyl-N-methylbenzamide]: in assay [1] (Homo sapiens, MV4-11, 72 h), the EC50 lay in the range of 100 to 1000 nM. The compound also had an IC50 in assay [2] of under 100 nM.

For the compound `CC(C)N(C)C(=O)c1cc(F)ccc1-n1cc(C2CCN(Cc3ccccc3Cl)CC2)c2ccncc21` [Example 15, 2-(3-(1-(2-chlorobenzyl)piperidin-4-yl)-1H-pyrrolo[2,3-c]pyridin-1-yl)-5-fluoro-N-isopropyl-N-methylbenzamide], the EC50 in assay [1] (Homo sapiens, MV4-11, 72 h) lay within 100 to 1000 nM. For the same compound, the 50% inhibitory concentration (IC50) in assay [2] is under 100 nM.

With `CC(C)N(C)C(=O)c1cc(F)ccc1-n1cc([C@H]2CC[C@H](N3CCC[C@H]3CO)CC2)c2ccncc21` [Example 96, 5-fluoro-2-(3-(trans-4-((S)-2-(hydroxymethyl)pyrrolidin-1-yl)cyclohexyl)-1H-pyrrolo[2,3-c]pyridin-1-yl)-N-isopropyl-N-methylbenzamide], the EC50 in assay [1] (Homo sapiens, MV4-11, 72 h) was in the range of 100 to 1000 nM. The same compound gave a concentration for half-maximal inhibition (IC50) in assay [2] of under 100 nM.

Take `CC(C)N(C)C(=O)c1cc(F)ccc1-n1cc(C2CCC(NCC3CCC(NS(C)(=O)=O)CC3)CC2)c2ccncc21` (single isomer, unassigned) [Example 61, 5-fluoro-N-isopropyl-N-methyl-2-(3-(4-(((4-(methylsulfonamido)cyclohexyl)methyl)amino)cyclohexyl)-1H-pyrrolo[2,3-c]pyridin-1-yl)benzamide]: in assay [1] (72 h), the EC50 was in the range of 100 to 1000 nM. This compound yielded an IC50 in assay [2] of under 100 nM.

With `CC(C)N(CCO)C(=O)c1cc(F)ccc1-n1cc(C2CCN(Cc3ccccc3)CC2)c2ccncc21` [Example 36, 2-(3-(1-benzylpiperidin-4-yl)-1H-pyrrolo[2,3-c]pyridin-1-yl)-5-fluoro-N-(2-hydroxyethyl)-N-isopropylbenzamide], in assay [1] (Homo sapiens, MV4-11, 72 h), the EC50 was under 100 nM. Further, in assay [2], the IC50 was under 100 nM.

On to `CC(C)N(C)C(=O)c1cc(F)ccc1-n1cc(C2CCN(Cc3ccc(Cl)cc3)CC2)c2ccncc21` [Example 10, 2-(3-(1-(4-chorobenzyl)piperidin-4-yl)-1H-pyrrolo[2,3-c]pyridin-1-yl)-5-fluoro-N-isopropyl-N-methylbenzamide], for which, in assay [1] (Homo sapiens, MV4-11, 72 h), the EC50 was 100 to 1000 nM. This compound also displayed an IC50 in assay [2] of under 100 nM.

For `CC(C)N(C(=O)c1cc(F)ccc1-n1cc(C2CCN(C[C@H]3CC[C@H](NS(C)(=O)=O)CC3)C2)c2ccncc21)C(C)C` (stereo partly drawn) [Example 127, 5-fluoro-N,N-diisopropyl-2-(3-(1-((trans-4-(methylsulfonamido)cyclohexyl)methyl)pyrrolidin-3-yl)-1H-pyrrolo[2,3-c]pyridin-1-yl)benzamide], in assay [1] (Homo sapiens, MV4-11, 72 h), the EC50 was under 100 nM. Moreover, the half-maximal inhibitory concentration (IC50) in assay [2] was under 100 nM.

With `CC(C)N(C)C(=O)c1cc(F)ccc1-n1cc(C2CCC(N(C)C)CC2)c2ccncc21` (single isomer, unassigned) [Example 54, 2-(3-(4-(dimethylamino)cyclohexyl)-1H-pyrrolo[2,3-c]pyridin-1-yl)-5-fluoro-N-isopropyl-N-methylbenzamide], the EC50 in assay [1] (Homo sapiens, MV4-11, 72 h) is at least 1000 nM. Moreover, the IC50 in assay [2] was under 100 nM.
